Consider eight compounds from PubChem BioAssay (NCI).

Common to all, as to experiment: DTP human tumour cell line panel, 48 h
For assay [1], the system named is PC-3 prostate.
In assay [2] the test system is A498 renal.
Assay [3] deals with OVCAR-4 ovarian.
The subject of assay [4] is CAKI-1 renal.
In assay [5] the test system is CCRF-CEM leukemia.
Assay [6] deals with NCI-H23 lung.
Assay [7] deals with SK-MEL-28 melanoma.
The test system of assay [8] is NCI-H460 lung.
Assay [9] deals with TK-10 renal.
Assay [10] deals with 786-0 renal.

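These data come from cells grown in 96-well plates and exposed to compound for 48 hours at five concentrations. Abbreviation: GI50, concentration required for 50% inhibition of growth. TGI is the concentration that stops growth completely.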

Consider `CCOC(=O)CC1(O)C=CC(=O)C=C1`, for which the GI50 (usually the concentration at which growth is held to half of that of the control) is 0.348 mg/L in assay [1]; 3.09 mg/L in [2]; 2.21 mg/L in assay [3]; 2.62 mg/L in assay [4]; 0.757 mg/L in [5]; 0.541 mg/L in [6]. Moreover, the GI50 in [7] is 1.04 mg/L; in [8] it was 1.12 mg/L; in assay [9], 2.12 mg/L; in assay [10] it was 0.596 mg/L. In addition, the TGI (usually the concentration at which net growth stops) is 0.921 mg/L in assay [1]; 5.26 mg/L in [2]; 4.44 mg/L in [3]; 4.71 mg/L in assay [4]; 7.02 mg/L in [5]; 1.75 mg/L in assay [6]. The concentration for total growth inhibition (TGI) in assay [7] was found to be 2.89 mg/L; in assay [8] it was 3.21 mg/L; in assay [9] it was 6.04 mg/L; in assay [10], 2 mg/L.

As for `CCCCCCCCCCCCCCCc1cc(O)ccc1N`, the GI50 was 0.463 µM in assay [1]; 21.7 µM in assay [2]; 1.23 µM in assay [3]; 1.72 µM in assay [4]; 0.0518 µM in assay [5]; > 96.2 µM in assay [6]. Further, the GI50 is > 67.3 µM in assay [7], > 100 µM in assay [8], > 63 µM in [9] and 2.77 µM in assay [10]. Further, the TGI in assay [1] is 10.6 µM; in [2] it was 75.3 µM; in assay [3] it was 3.77 µM; in [4], 7.06 µM; in assay [6], > 100 µM; in [7] it was > 100 µM. Also, the TGI is > 100 µM in assay [8], > 100 µM in [9] and 37.2 µM in [10].

For `O=C1c2ccccc2C(=O)N1c1ccc(S(=O)(=O)Nc2ncccn2)cc1`, the GI50 in [1] was > 100 µM; in assay [2], > 100 µM; in assay [3] it was > 100 µM; in assay [4], > 100 µM; in [5], 9.79 µM; in assay [6] it was > 100 µM. The GI50 in assay [7], in assay [8], in [9] and in assay [10] was > 100 µM in each case. For the same compound, the TGI in assay [1], in assay [2], in assay [3], in assay [4], in [5] and in assay [6] was > 100 µM in each case. Further, the total growth inhibition concentration (TGI) in assay [7], in assay [8], in [9] and in assay [10] was > 100 µM each time.

Take `CC(C)(C)c1ccc([I+]c2ccc(C(C)(C)C)cc2)cc1`: the GI50 in assay [1] was 1.17 µM; in assay [2] it was 1.37 µM; in assay [3], 0.658 µM; in assay [4] it was 8.3 µM; in [5], 1.17 µM; in assay [6] it was 1.69 µM. In addition, the GI50 in [7] is 1.11 µM; in assay [8], 1.66 µM; in assay [9], 2.62 µM; in assay [10], 1.69 µM. Moreover, the TGI was 6.05 µM in assay [1]; 3.81 µM in assay [2]; 11 µM in [3]; 20.8 µM in assay [4]; 9.14 µM in assay [5]; 7.57 µM in assay [6]. Also, the TGI in assay [7] is 3.14 µM; in assay [8], 4.16 µM; in [9] it was 9.75 µM; in [10] it was 3.77 µM.

For the compound `CC1(C)N=C(N)N=C(N)N1c1ccc(F)c(C(F)(F)F)c1`, the GI50 in [1] is 0.256 µM; in assay [2], 9.84 µM; in assay [3], 22.6 µM; in assay [4], 4.92 µM; in [5] it was 0.532 µM; in [6], 2.53 µM. Also, the GI50 in [7] was 15.9 µM; in assay [8], 0.42 µM; in [9], 3.4 µM; in assay [10] it was 0.543 µM. Moreover, the TGI in assay [1] is > 100 µM; in assay [2], > 100 µM; in assay [3], > 100 µM; in [4], > 93.1 µM; in assay [5], > 100 µM; in assay [6], > 100 µM. The TGI in assay [7], in assay [8], in [9] and in assay [10] was > 100 µM in each case.

`O=Cc1ccc(-c2ccc(-c3ccc(C=O)s3)o2)s1`: the TGI in [1] is > 100 µM; in assay [2], 0.732 µM; in assay [3], > 100 µM; in assay [4], 1.31 µM; in assay [5] it was > 100 µM; in assay [6] it was > 100 µM. Besides, the TGI in assay [7] was > 100 µM; in [8] it was > 100 µM; in assay [9], 7.33 µM; in assay [10], > 100 µM.

With `O=C(Nc1ccc(Br)cc1)Nc1n[nH]c2ccccc12`, the GI50 in assay [1] is > 82.7 µM; in [2], > 100 µM; in [3], 56.7 µM; in [4] it was > 100 µM; in assay [5], 6.8 µM; in assay [6], > 100 µM. Also, the GI50 in assay [7] was > 100 µM; in [8], 11.7 µM; in assay [10], > 100 µM. Moreover, the TGI in [1], in assay [2], in [3], in assay [4], in [5] and in assay [6] was > 100 µM throughout. Also, the TGI in assay [7] was > 100 µM; in assay [8], > 100 µM; in [9], > 26.7 µM; in [10] it was > 100 µM.

Take `O=C1OC(c2ccc(O)c(-c3ccccc3)c2)(c2ccc(O)c(-c3ccccc3)c2)c2c(Cl)c(Cl)c(Cl)c(Cl)c21`: the TGI in assay [1], in assay [2], in assay [3], in assay [4], in assay [5] and in assay [6] was > 100 µM in each case. Further, the TGI in assay [7], in [8], in assay [9] and in assay [10] was > 100 µM in each case.
